The target of experiment [1] is T1, FAP5-expressing HT1080-FAP cells (human FAP-transfected) (Homo sapiens, UniProt Q12884).
T1 construct: expressed in transfected cells; host or cells: HT1080
T1 sequence (Q12884 1-760): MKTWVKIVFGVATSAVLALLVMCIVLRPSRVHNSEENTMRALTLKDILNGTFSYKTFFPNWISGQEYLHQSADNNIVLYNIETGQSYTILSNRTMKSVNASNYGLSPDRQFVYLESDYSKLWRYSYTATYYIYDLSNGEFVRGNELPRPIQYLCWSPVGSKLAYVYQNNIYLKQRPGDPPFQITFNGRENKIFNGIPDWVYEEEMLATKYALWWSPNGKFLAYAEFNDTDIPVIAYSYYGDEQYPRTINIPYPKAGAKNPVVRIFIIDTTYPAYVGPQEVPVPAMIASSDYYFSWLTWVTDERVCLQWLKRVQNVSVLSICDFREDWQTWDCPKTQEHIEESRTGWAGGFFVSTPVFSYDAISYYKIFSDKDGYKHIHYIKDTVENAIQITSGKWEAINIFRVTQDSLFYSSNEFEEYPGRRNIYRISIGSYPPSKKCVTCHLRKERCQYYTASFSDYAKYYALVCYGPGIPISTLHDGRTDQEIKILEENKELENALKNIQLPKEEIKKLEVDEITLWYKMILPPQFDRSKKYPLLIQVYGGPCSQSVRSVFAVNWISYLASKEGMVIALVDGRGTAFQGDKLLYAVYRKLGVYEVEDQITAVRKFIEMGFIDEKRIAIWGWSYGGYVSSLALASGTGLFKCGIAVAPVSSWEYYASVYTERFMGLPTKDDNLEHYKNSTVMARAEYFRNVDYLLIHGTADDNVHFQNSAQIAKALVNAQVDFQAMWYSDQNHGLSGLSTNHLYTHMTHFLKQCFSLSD
The experiment in a line: Confocal binding studies of FAP-targeting ligand on HT1080-FAP cells. Type of experiment: cell-based. The method, then: Method 1: HT1080-FAP cells ([…]) were seeded in 4-well confocal plates. The cells were allowed to grow as a monolayer over 24 h at 37° C. and were incubated with various concentrations of conjugate ranging from 3.0 nM (lowest) to 25 nM (highest) in 1% FBS in PBS for 1 h at 37° C. Cells were washed with 1% FBS (3×500 μL) and the cells were left in 500 μl of 1% FBS and images were acquired with confocal microscopy. Again, the PBS in cells was replaced with growth media and the cells were re-incubated at 37° C. for 8 to 48 h. Images acquired at different concentrations of the compound at 37° C. are shown in FIG. 3, at different time points are shown in FIG. 4, and with 100-fold excess of competition ligand are shown in FIG. 5.
Method 2: Human FAP-transfected HT1080-FAP cells were (100,000) were plated on 4-well confocal plates and incubated with different concentrations (50 nM, 25 nM, 12.5 nM, 6.25 nM, 3.125 nM and 1.65 nM) of the compound for 1 h at 37° C. The unbound fluorescence was removed by washing the cells 3× with medium, and cell-bound fluorescence was imaged using an Olympus confocal microscope. The experiment was done in triplicate.

The target of experiment [2] is T2, FAP5 on HT1080-FAP (HT1080-hFAP) cells (Homo sapiens, UniProt Q12884).
T2 construct: expressed in transfected cells; host or cells: HT1080
T2 sequence (Q12884 1-760): T1 sequence (Q12884 1-760)
The experiment in a line: Binding assay (cell-bound fluorescence, apparent Kd) on HT1080-FAP cells. The method, then:
Method 1: HT1080-FAP cells (200000 cells/well) were seeded in a 24-well plate. The cells were allowed to grow as a monolayer over 24 h and incubated with various concentrations of FAP-targeted rhodamine conjugate either in the presence or absence of excess competition ligand (ligand without dye). After incubating for 1 h at 4° C. the cells were washed 3× with PBS to remove unbound fluorescence. The cells were then dissolved in 1% SDS and the cell-bound fluorescence was measured using a Neo2 Plate Reader.
(§1) Method 2: 100,000 HT1080-hFAP and HT1080 cells were seeded in amine-coated 24-well plates to ensure cell adherence. Upon formation of a monolayer, cells were incubated with various concentrations of the compound in the presence or absence of excess of unlabeled ligand. After incubation for 1 h, the cells were washed 3× with medium to remove to unbound fluorescence and dissolved in 1% SDS. The cell-bound fluorescence was measured using a fluorescence spectrophotometer (NeO2 Plate reader) set with a λex=555 nm and λem=575 nm. Cell-bound fluorescence was plotted against various concentrations and the apparent Kd was determined by using one-site binding (hyperbola) curve fit in GraphPad prism7. The experiment was done in triplicate.

The test system of experiment [3] is HT1080 cells that do not express FAP5. Description: Binding assay on HT1080 cells that do not express FAP5. Details: species or system human. Particulars: FIG. 8. The procedure:
as §1

For experiment [4], the target named is T3, FAP (e.g., FAP5) on HEK-FAP cells (Homo sapiens, UniProt Q12884).
T3 construct: expressed in transfected cells; host or cells: HEK
T3 sequence (Q12884 1-760): T1 sequence (Q12884 1-760)
Description: Displacement binding curves in HEK-FAP cells. Particulars: displacement binding (FIGS. 21-22), read-out: affinity for cells that express FAP.

`CN(C)c1ccc2c(c1)OC1=CC(=[N+](C)C)C=CC1C2c1ccc(C(=O)NCCOCCOCCOCCOCCC(=O)NCCNC(=O)c2ccc(-c3cn(Cc4cccc5c4CN(C(=O)C[C@@H]4C[C@@H](C(=O)N6CC(F)(F)C[C@H]6C#N)NC4=O)C5)nn3)cc2)cc1C(=O)O` (stereo partly drawn) [compound 1]: in experiment [1] (12.5 nM, e.g., 1 hour, 8 hours, 24 hours, or more (FIG. 4)), the “time remaining localized and internalized to FAP5-expressing cells” value was “at least 1 hour”. In addition, the “localization to cells expressing FAP5 (confocal)” value in experiment [1] (HT1080-FAP cells, 50 nM, 25 nM, 12.5 nM, and 6.5 nM (FIG. 3)) was “localizes to cells”. Besides, the figures for the Kd in experiment [2] (cells expressing FAP5 (FIG. 7)) and in experiment [4] were 5 to 15 nM and 1 to 10 nM, respectively. Also, the “binding to HT1080 cells expressing FAP5 in the presence of an unlabelled FAP5 ligand” value in experiment [2] (competitor e.g., compound 8, FIG. 8) was “does not bind”. Further, in experiment [3], the “binding to HT1080 cells that do not express FAP5” value is “does not bind”.

Consider `CN(C)c1ccc2c(-c3ccc(C(=O)NCCNC(=O)c4cccc5c4CN(C(=O)C[C@@H]4C[C@@H](C(=O)N6CC(F)(F)C[C@H]6C#N)NC4=O)C5)cc3C(=O)[O-])c3ccc(=[N+](C)C)cc-3oc2c1` [compound 5], for which the Kd in experiment [4] was in the range of 1 to 10 nM.

Turning to `CN(C)c1ccc2c(-c3ccc(C(=O)NCCNC(=O)CCc4cccc5c4CN(C(=O)C[C@@H]4C[C@@H](C(=O)N6CC(F)(F)C[C@H]6C#N)NC4=O)C5)cc3C(=O)[O-])c3ccc(=[N+](C)C)cc-3oc2c1` [compound 6], the Kd in experiment [4] lay within 1 to 10 nM.

`N#C[C@@H]1C[C@H](F)CN1C(=O)[C@@H]1C[C@@H](CC(=O)N2Cc3cccc(Cn4cc(-c5ccc(C(=O)NCCNC(=O)CCC(=O)O)cc5)nn4)c3C2)C(=O)N1` [compound 21]: the Kd in experiment [4] fell in the range of 1 to 10 nM.

These data come from patent US20220409747A1, “FIBROBLAST ACTIVATION PROTEIN (FAP)-TARGETED IMAGING AND THERAPY OF CANCERS AND OTHER FIBROTIC AND INFLAMMATORY DISEASES” (Purdue Research Foundation, priority 2019, published 2022).
